Measured values from ChEMBL document CHEMBL1201862, “PubChem BioAssay data set” (2004).
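Exposure lasted 48 hours, with cells grown in 96-well plates and compounds tested at five concentrations. GI50 is the concentration that inhibits growth by half.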 Calls of active or inactive are those of the source. Cut-off read from the data, not from the text of the source: active = GI50 up to about 1.1 µM and inactive = higher.

What was measured:
Assay in all cases: NCI tumour cell line growth inhibition, 48 h
OVCAR-3 = test system: OVCAR-3
SK-MEL-5 = test system: SK-MEL-5
OVCAR-4 = test system: OVCAR-4
U-251 = test system: U-251
SN12C = test system: SN12C
SF-268 = test system: SF-268
SNB-75 = test system: SNB-75
SW-620 = test system: SW-620
HCT-15 = test system: HCT-15
HT-29 = test system: HT-29
MCF7 = test system: MCF7
KM12 = test system: KM12
ACHN = test system: ACHN
T47D = test system: T47D
Hs-578T = test system: Hs-578T
HOP-92 = test system: HOP-92
UACC-62 = test system: UACC-62
COLO 205 = test system: COLO 205
A498 = test system: A498
RXF 393 = test system: RXF 393
MDA-N = test system: MDA-N
MDA-MB-231 = test system: MDA-MB-231
CCRF-CEM = test system: CCRF-CEM
SK-MEL-28 = test system: SK-MEL-28
Malme-3M = test system: Malme-3M
SNB-19 = test system: SNB-19
EKVX = test system: EKVX
OVCAR-8 = test system: OVCAR-8
RPMI-8226 = test system: RPMI-8226
IGROV-1 = test system: IGROV-1
MDA-MB-435 = test system: MDA-MB-435
PC-3 = test system: PC-3
HCT-116 = test system: HCT-116
SR = test system: SR
TK-10 = test system: TK-10
NCI/ADR-RES = test system: NCI/ADR-RES
HOP-62 = test system: HOP-62
UO-31 = test system: UO-31
HL-60 = test system: HL-60
NCI-H23 = test system: NCI-H23
HCC 2998 = test system: HCC 2998
NCI-H522 = test system: NCI-H522
SK-MEL-2 = test system: SK-MEL-2
UACC-257 = test system: UACC-257
OVCAR-5 = test system: OVCAR-5
SF-539 = test system: SF-539
786-0 = test system: 786-0
K562 = test system: K562
SF-295 = test system: SF-295
CAKI-1 = test system: CAKI-1
LOX IMVI = test system: LOX IMVI
A549 = test system: A549
DU-145 = test system: DU-145
M14 = test system: M14
NCI-H226 = test system: NCI-H226
SK-OV-3 = test system: SK-OV-3
MOLT-4 = test system: MOLT-4
NCI-H460 = test system: NCI-H460

What does the source list for `O=C1c2[nH]c3ccc(Br)cc3c2CCN1Cc1ccc(Cl)cc1`?
GI50 (OVCAR-3): 15.2 µM (inactive); GI50 (SK-MEL-5): 10.9 µM (inactive); GI50 (OVCAR-4): 18.6 µM (inactive); GI50 (U-251): 12.5 µM (inactive); GI50 (SN12C): 19.3 µM (inactive); GI50 (SF-268): 12.7 µM (inactive); GI50 (SNB-75): 20.9 µM (inactive); GI50 (SW-620): 16.5 µM (inactive); GI50 (HCT-15): 3.99 µM; GI50 (HT-29): > 100 µM (inactive); GI50 (MCF7): 16.6 µM (inactive); GI50 (KM12): 14.1 µM (inactive); GI50 (ACHN): 10.8 µM (inactive); GI50 (T47D): 13.4 µM (inactive); GI50 (Hs-578T): 17.1 µM (inactive); GI50 (HOP-92): 16.2 µM (inactive); GI50 (UACC-62): 14.1 µM (inactive); GI50 (COLO 205): 17.7 µM (inactive); GI50 (A498): 17.1 µM (inactive); GI50 (RXF 393): 16.9 µM (inactive); GI50 (MDA-N): 14.7 µM (inactive); GI50 (MDA-MB-231): 11.9 µM (inactive); GI50 (CCRF-CEM): 12.3 µM (inactive); GI50 (SK-MEL-28): 14.7 µM (inactive); GI50 (Malme-3M): 15.3 µM (inactive); GI50 (SNB-19): 15.1 µM (inactive); GI50 (EKVX): > 100 µM (inactive); GI50 (OVCAR-8): 18.7 µM (inactive); GI50 (RPMI-8226): > 10 µM (inactive); GI50 (IGROV-1): 16.7 µM (inactive); GI50 (MDA-MB-435): 14.4 µM (inactive); GI50 (PC-3): 4.74 µM (inactive); GI50 (HCT-116): 10.4 µM (inactive); GI50 (SR): 8.79 µM (inactive); GI50 (TK-10): 13.7 µM (inactive); GI50 (NCI/ADR-RES): 17.2 µM (inactive); GI50 (HOP-62): 12.9 µM (inactive); GI50 (UO-31): 16.4 µM (inactive); GI50 (HL-60): 17.3 µM (inactive); GI50 (NCI-H23): 17.1 µM (inactive); GI50 (HCC 2998): 14.5 µM (inactive); GI50 (NCI-H522): 17.9 µM (inactive); GI50 (SK-MEL-2): 19.1 µM (inactive); GI50 (UACC-257): 15.3 µM (inactive); GI50 (OVCAR-5): 12.5 µM (inactive); GI50 (SF-539): 10.7 µM (inactive); GI50 (786-0): 11.3 µM (inactive); GI50 (K562): 8.79 µM (inactive); GI50 (SF-295): 12.8 µM (inactive); GI50 (CAKI-1): 19.5 µM (inactive); GI50 (LOX IMVI): 12.5 µM (inactive); GI50 (A549): 12.7 µM (inactive); GI50 (DU-145): 14.2 µM (inactive); GI50 (M14): 13.2 µM (inactive)

What does the source list for `COC(=O)CCc1ccc2c(c1)CC1(C2)Cc2ccc(CCC(=O)OC)cc2C1`?
GI50 (OVCAR-3): 77.4 µM (inactive); GI50 (SK-MEL-5): 24 µM (inactive); GI50 (OVCAR-4): 53.3 µM (inactive); GI50 (U-251): 40.1 µM (inactive); GI50 (SN12C): 68.5 µM (inactive); GI50 (SNB-75): < 0.01 µM (active); GI50 (NCI-H226): 38.8 µM (inactive); GI50 (HCT-15): > 100 µM; GI50 (HT-29): 62.7 µM (inactive); GI50 (MCF7): 48.6 µM (inactive); GI50 (SK-OV-3): > 100 µM (inactive); GI50 (KM12): > 100 µM (inactive); GI50 (ACHN): > 100 µM (inactive); GI50 (T47D): 58.2 µM (inactive); GI50 (Hs-578T): > 100 µM (inactive); GI50 (HOP-92): 35.4 µM (inactive); GI50 (UACC-62): > 100 µM (inactive); GI50 (COLO 205): 57.5 µM (inactive); GI50 (A498): > 100 µM (inactive); GI50 (RXF 393): > 100 µM (inactive); GI50 (MDA-N): > 100 µM (inactive); GI50 (MDA-MB-231): 89.9 µM (inactive); GI50 (CCRF-CEM): 15.6 µM (inactive); GI50 (MOLT-4): 29.6 µM (inactive); GI50 (Malme-3M): 63.1 µM (inactive); GI50 (EKVX): > 100 µM (inactive); GI50 (OVCAR-8): 60.1 µM (inactive); GI50 (RPMI-8226): 28.4 µM (inactive); GI50 (IGROV-1): 75.2 µM (inactive); GI50 (MDA-MB-435): > 100 µM (inactive); GI50 (PC-3): > 100 µM (inactive); GI50 (HCT-116): > 100 µM (inactive); GI50 (SR): 29.4 µM (inactive); GI50 (TK-10): > 100 µM (inactive); GI50 (NCI/ADR-RES): > 100 µM (inactive); GI50 (HOP-62): 62.7 µM (inactive); GI50 (UO-31): > 100 µM (inactive); GI50 (HL-60): 17.1 µM (inactive); GI50 (NCI-H23): 44.7 µM (inactive); GI50 (HCC 2998): > 100 µM (inactive); GI50 (NCI-H522): 34.5 µM (inactive); GI50 (SK-MEL-2): > 100 µM (inactive); GI50 (UACC-257): > 100 µM (inactive); GI50 (OVCAR-5): > 100 µM (inactive); GI50 (SF-539): > 100 µM (inactive); GI50 (786-0): > 100 µM (inactive); GI50 (K562): > 100 µM (inactive); GI50 (SF-295): 78 µM (inactive); GI50 (LOX IMVI): 26.6 µM (inactive); GI50 (A549): > 100 µM (inactive); GI50 (M14): > 100 µM (inactive)

Which GI50 (OVCAR-4) does the source give for `COc1cc2c(cc1OCCOS(C)(=O)=O)N=C[C@@H]1CCCN1C2=O` here?
Its GI50 is 22.2 µM (inactive).

What about the GI50 (SN12C) of the same compound?
Its GI50 is 26 µM (inactive).

What about the GI50 (SF-268) of the same compound?
Its GI50 is 70.1 µM (inactive).

And the GI50 (SNB-75)?
The GI50 was 54.1 µM (inactive).

What about the GI50 (HT-29) of the same compound?
The GI50 was 36.8 µM (inactive).

What about the GI50 (MCF7) of the same compound?
The GI50 was 39 µM (inactive).

What about the GI50 (SK-OV-3) of the same compound?
The GI50 was > 100 µM (inactive).

What about the GI50 (KM12) of the same compound?
The GI50 was 33.9 µM (inactive).

What about the GI50 (T47D) of the same compound?
Its GI50 is 40.7 µM (inactive).

What about the GI50 (Hs-578T) of the same compound?
The GI50 was 27.5 µM (inactive).

And the GI50 (HOP-92)?
Its GI50 is 21.4 µM (inactive).

And the GI50 (COLO 205)?
The GI50 was 24.1 µM (inactive).

What about the GI50 (RXF 393) of the same compound?
The GI50 was 29.7 µM (inactive).

What about the GI50 (SK-MEL-28) of the same compound?
Its GI50 is 23.8 µM (inactive).

What about the GI50 (MOLT-4) of the same compound?
Its GI50 is 21.9 µM (inactive).

What about the GI50 (SNB-19) of the same compound?
The GI50 was 45.3 µM (inactive).

What about the GI50 (EKVX) of the same compound?
Its GI50 is 32.7 µM (inactive).

What about the GI50 (OVCAR-8) of the same compound?
Its GI50 is 32.1 µM (inactive).

What about the GI50 (IGROV-1) of the same compound?
The GI50 was 27.7 µM (inactive).

And the GI50 (MDA-MB-435)?
Its GI50 is 20.3 µM (inactive).

And the GI50 (NCI-H460)?
Its GI50 is 97.7 µM (inactive).

What about the GI50 (HL-60) of the same compound?
The GI50 was 26.9 µM (inactive).

What about the GI50 (HCC 2998) of the same compound?
The GI50 was 30.7 µM (inactive).

And the GI50 (SK-MEL-2)?
The GI50 was 29.4 µM (inactive).

And the GI50 (SF-295)?
Its GI50 is 23.3 µM (inactive).

And the GI50 (A549)?
The GI50 was > 100 µM (inactive).

And the GI50 (DU-145)?
The GI50 was 27.3 µM (inactive).
